“Also recorded” adds a separate entry of the source.

Series [1] relates to EGFR. The series can be described thus: Immunoblot/densitometric analysis of phospho-EGFR/total EGFR in SCC-R cells. It counts as cell-based, human. As to conditions: inhibitor 24 hrs (25 μM LY294002, 20 μM AKI, 2 μM rapamycin, 20 μM U0126), then 10 ng/ml EGF 30 min. How it is done:
(§1) Antibodies against EGFR, phospho-tyrosine (P-Tyr-100), phospho-EGFR (Tyr1068), phospho-HER2/ErbB2 (Tyr1248), AKT, phospho-AKT (Ser473), p44/42 MAPK, (Erk1/2), phospho-p44/42 MAPK (Erk1/2) (Thr202/Tyr204), and PTEN were obtained from Cell Signaling Technology, Inc. (Beverly, Mass.). Monoclonal anti-P-Actin antibody was obtained from Sigma (St. Louis, Mo.). Polyclonal anti-Mig6 antibody was a generous gift from Dr. Ferby (15). When appropriate, cells were cultured in serum free medium overnight, pretreated with the indicated inhibitors for 3 hrs or 2.4 hrs, and the treated with 10 ng/ml EGF for 10 or 30 min. Equal amounts of protein were mixed with Laemmli sample buffer, run on 4-12% NuPAGE gels and transferred to nitrocellulose membrane (Bio-Rad Laboratories, Hercules, Calif.). The membrane was probed with primary antibody followed by HRP-conjugated appropriate secondary antibodies (Santa Cruz Biotech, Santa Cruz, Calif.), and detected by enhanced chemiluminescence (ECL, GE Health Care, Piscataway, N.J.).

For series [2], the system named is Mig6. The series can be described thus: Immunoblot analysis of Mig6 expression in SCC-R cells. As to conditions: for expression of Mig6: AKI or U0126 10 or 20 μM, LY294002 10 or 25 μM, rapamycin 1 or 2 μM. It counts as cell-based, human.
Text: as §1, with “When appropriate, cells were cultured in serum free medium overnight, pretreated with the indicated inhibitors for 3 hrs or 2.4 hrs, and the treated with 10 ng/ml EGF for 10 or 30 min.” left out

Series [3] relates to Mig6. As to the kind of experiment: Immunoblot analysis of Mig6 expression in 358 cells. In kind it is cell-based, human. As to conditions: 24 hrs. As to the method: as §1
The subject of the next series is serum proteins. To be noted: cited from earlier work.
For a further series, the system named is BML-5. The series can be described thus: Erlotinib treatment of directly xenografted lung tumors. As to conditions: BML-5 compared with BML-1, BML-7, BML-11. In kind it is in vivo, nude mice.
For series [4] the following is noted: 150 mg per day; cited from earlier work.
The next series has as its system PANC294. As to the kind of experiment: Erlotinib treatment of directly xenografted pancreatic tumors. In kind it is in vivo, nude mice.
Another series concerns H358 cells. The series can be described thus: Cell viability of parental and TGF β-induced H358 cells. It counts as cell-based, human. As to conditions: TGF-β-induced mesenchymal-like cells vs parental. How it is done: (§2) Cells were plated at a density of 3000/well in 96-well plates. The following day, cells were treated with 0, 0.01, 0.033, 0.1, 0.33, 1, or 3.3 μM erlotinib for an additional 72 hrs. Cell viability was subsequently assayed using Calcein AM (Invitrogen), Fluorescence signals generated as a result of Calcein AM cleavage by viable cells were read by a Molecular Devices plate reader (Sunnyvale, Calif.) using an excitation frequency of 480 nm, and an emission frequency of 535 nm.

In another series the test system is PANC215. As to the kind of experiment: Erlotinib treatment of directly xenografted pancreatic tumors. In kind it is in vivo, nude mice.
The next series has as its system PANC420. Described as above. In kind it is in vivo, nude mice.
For another series, the system named is PANC140. The series is described as above. It counts as in vivo, nude mice.
Series [5] has as its system EGFR. As to the kind of experiment: Immunoblot of EGF-induced EGFR phosphorylation in bladder and lung cancer cell lines. It counts as cell-based, human. As to conditions: all bladder and lung cancer cell lines tested; 0.1 μM erlotinib 3 hrs before 10 ng/ml EGF. How it is done: as §1, with “Equal amounts of protein were mixed with Laemmli sample buffer, run on 4-12% NuPAGE gels and transferred to nitrocellulose membrane (Bio-Rad Laboratories, Hercules, Calif.).” left out

In a further series the test system is PANC410. As to the kind of experiment: Erlotinib treatment of directly xenografted pancreatic tumors. It counts as in vivo, nude mice.
Series [6] deals with Mig6. The series can be described thus: Immunoblot analysis of Mig6 expression in 358/TGFβ1-day 21 and 358/TGFβ3-day 21 cells. It counts as cell-based, human. As to conditions: 24 hrs. As to the method:
as §1

A further series concerns SCC-S and SCC-R cells. The series can be described thus: Cell viability and drug sensitivity assay (Calcein AM), erlotinib-sensitive vs -resistant isogenic cells. It counts as cell-based, human. To be noted: erlotinib 72 hrs, cell viability. How it is done: Drug resistant cell lines were generated via a process of slowly escalating exposure to erlotinib, as reported previously (16). SCC-S is used to designate the parental UM-SCCI cells exposed to DMSO, and SCC-R refers to the erlotinib resistant clone.
as §2

The test system of a further series is tumors in Errfil−/− mice. As to conditions: cited from earlier work.
Series [7] concerns tumors in control Errfil+/+ mice. To be noted: cited from earlier work.
In a further series the test system is NSCLC. As to conditions: patients randomized to gefinitib or placebo; cited from earlier work.

Experimental for BML-5: (§3) The xenografts were generated and erlotinib treatment was performed as published previously (17, 18). Relative tumor growth inhibition (TGI) was calculated as the relative tumor growth of treated mice divided by relative tumor growth of control mice (T/C). The animals were maintained in accordance to guidelines of the American Association of Laboratory Animal Care and the research protocol was approved by the Johns Hopkins University Animal Use and Care Committee.
Experimental for PANC140: as §3
Experimental for PANC215: The xenografts were generated and erlotinib treatment was performed as published previously (17, 18). Relative tumor growth inhibition (TGI) was calculated as the relative tumor growth of treated mice divided by relative tumor growth of control mice (T/C).
Experimental for PANC294: as §3
Experimental for PANC410: as §3
Experimental for PANC420: as §3

On to `O=c1[nH]c2ccccc2n1C1CCN(Cc2ccc(-c3nc4cc5[nH]cnc5cc4nc3-c3ccccc3)cc2)CC1` [AKI], for which the “ratio of phospho-EGFR to EGFR” value with EGFR [1] is on record as “increased”. Besides, the “expression of Mig6” value with Mig6 [2] (24 hrs) was “decreased”.
In the case of `N#CC(=C(/N)Sc1ccccc1N)/C(C#N)=C(\N)Sc1ccccc1N` [U0126], the figures for the “expression of Mig6” value in the series with Mig6 [3] and with Mig6 [2] (24 hrs) were “reduced” and “decreased”, respectively. In the series on EGFR [1], the “ratio of phospho-EGFR to EGFR” value was “increased”.
For the compound `C#Cc1cccc(Nc2ncnc3cc(OCCOC)c(OCCOC)cc23)c1` [erlotinib], in the series with serum proteins, the “bound to serum proteins” value is given as 90%. The “response of lung xenograft to erlotinib (tumor growth)” value in the series on BML-5 is on record as “sensitive; also recorded: better response”. In addition, the “steady-state serum concentration, median” value in [4] is 2.9 µM. Besides, the “erlotinib responsiveness of xenografted pancreatic tumor” value is on record as “erlotinib-resistant” in the series on PANC294; “erlotinib-resistant” in the series on PANC215; “erlotinib-resistant” in the series on PANC420; “erlotinib-resistant” in the series on PANC140; “erlotinib-sensitive” in the series on PANC410. The “resistance to erlotinib, cell viability” value with H358 cells is “acquired increasing resistance”. In addition, the entries for the “expression of Mig6” value with Mig6 [3] and in the series on Mig6 [6] were “reduced” and “failed to suppress”, respectively. The “basal Mig6 expression” value in the series with Mig6 [2] (0.2 or 1 μM erlotinib, 24 hrs) is recorded as “only a slight decrease”. Moreover, the “EGF-induced Mig6 upregulation” value in the series on Mig6 [2] (erlotinib pretreatment 30 min then 10 ng/ml EGF 24 hrs) was “completely abolish”. Moreover, the “ligand-induced EGFR phosphorylation” value with EGFR [5] is on record as “effectively block”. Moreover, in the series with SCC-S and SCC-R cells, the “IC50 of SCC-R cells relative to SCC-S cells” value is reported as more than 10 times.
For `COc1cc2ncnc(Nc3ccc(F)c(Cl)c3)c2cc1OCCCN1CCOCC1` [gefitinib], in the series on tumors in Errfil−/− mice (Errfil−/− mice), the “sensitivity of carcinogen-induced tumors to gefitinib” value was “unusually sensitive”. The tumor regression result with tumors in Errfil−/− mice (in 1 week following initiation of gefitinib treatment) is “more than 50%”. In addition, the “tumor response to gefitinib” value in [7] is recorded as “did not respond”. For the same compound, the “overall difference of PFS vs placebo” value with NSCLC is listed as 7 days.
